Assay results as given in PubChem BioAssay (NCI).
Values joined by “and” are separate entries in the source; they are usually repeats but may differ in a detail not shown here. Equal values may be shown once.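 All cell lines were grown in 96-well plates and treated with compound for 48 hours. GI50 marks 50% less growth. At the TGI there is no net growth.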

How the values were obtained:
Experiment in all cases: NCI-60 cell line screen, 48 h
[1] = system: BT-549 breast
[2] = system: CAKI-1 renal
[3] = system: KM12 colon
[4] = system: MALME-3M melanoma
[5] = system: OVCAR-4 ovarian
[6] = system: SF-268 CNS
[7] = system: SK-MEL-5 melanoma
[8] = system: T-47D breast
[9] = system: TK-10 renal
[10] = system: UO-31 renal

| SMILES | GI50 [1] | TGI [1] | GI50 [2] [µM] | TGI [2] | GI50 [3] | TGI [3] | GI50 [4] | TGI [4] | GI50 [5] [µM] | TGI [5] [µM] | GI50 [6] [µM] | TGI [6] [µM] | GI50 [7] | TGI [7] | GI50 [8] | TGI [8] | GI50 [9] | TGI [9] | GI50 [10] | TGI [10] |
| --- | --- | --- | --- | --- | --- | --- | --- | --- | --- | --- | --- | --- | --- | --- | --- | --- | --- | --- | --- | --- |
| COC(=O)c1ccc2c(c1)/C(=C\c1cc(Br)c(O)c(Br)c1)C(=O)N2 | 10.6 µM | > 25 µM | 4.68 | > 25 µM | 6.79 µM | > 25 µM | 2.08 µM | 13.8 µM | 7.96 | > 25 | 10.1 | > 25 | 4.48 µM | > 16.5 µM | 8.72 µM | > 25 µM | 6.79 µM | > 23.3 µM | 6.84 µM | > 25 µM |
| CCOC(=O)c1c(-c2ccc(OC)cc2)c(C#N)c2c(C#N)c(N)nn2c1N | 2.65 µM | 28.1 µM | 2.95 | > 100 µM | 4.01 µM | > 100 µM | 4.05 µM | 82.7 µM | 6.11 | 96.7 | 5.39 | 73.7 | 1.78 µM | 4.41 µM | 2.93 µM | 33.1 µM | 16.4 µM | 69.2 µM | 3.49 µM | 90 µM |
| Cc1ccc(Nc2oc(-c3ccccc3)nc2[P+](c2ccccc2)(c2ccccc2)c2ccccc2)cc1 | 1.41 µM | 2.92 µM | 1.22 | 2.72 µM | 0.861 µM | 2.46 µM | 0.459 µM | 1.43 µM | 0.357 | 2.07 | 1.56 | 4.9 | 0.493 µM | 1.4 µM | 0.43 µM | 2.33 µM | 1.37 µM | 2.93 µM | 0.44 µM | 1.65 µM |
| O=[N+]([O-])c1ccc(CI)cc1 | 3.54 µM | 10.8 µM | 1.91 | 3.98 µM | 3.52 µM | 12 µM | 2.15 µM | 4.63 µM | 3.6 | 18.6 | 4.02 | 15.2 | 1.99 µM | 4.41 µM | 2.21 µM | 5.17 µM | 1.85 µM | 3.32 µM | 1.79 µM | 3.59 µM |
| C[C@@]12CCC[C@@](C)(C(=O)O)C1CC[C@]13CC(=O)[C@](CO)(C1)[C@@H](O)CC32 (some centres not stated) | > 100 µM | > 100 µM | > 100 | > 100 µM | > 100 µM | > 100 µM | > 100 µM | > 100 µM | > 100 | > 100 | > 100 | > 100 | > 100 µM | > 100 µM | > 100 µM | > 100 µM | > 100 µM | > 100 µM | > 100 µM | > 100 µM |
| O=C1c2cccc3cccc(c23)C(=O)N1CCCCCN1CCN(CCCCCOc2ccc(-c3nc4ccc(N5CCOCC5)cc4[nH]3)cc2)CC1 | 4.88 µM | 23.2 µM | > 45.6 | > 70.6 µM | 2.15 µM | 4.29 µM | 17.7 µM | 40 µM | 7.04 | 28.3 | 22.4 | 43.2 | 6.43 µM | 19.9 µM | 2.01 µM | 7.71 µM | 8.24 µM | 14.8 µM | 3.47 µM | 34.7 µM |
| COc1ccc2c(c1)c[n+](C)c1c3cc(OC)c(OC)cc3ccc21 | 2.4 µM and 10.2 µM | 9.63 µM and 26.2 µM |  | 32.2 µM and 44 µM | 1.21 µM and 2.88 µM | 2.79 µM and 9.42 µM | 3.71 µM and 12.4 µM | 14.9 µM and 26 µM | 5.48 | 20.4 |  | 9.9 | 4.08 µM and 8.31 µM | 15.1 µM and 20.2 µM | 1.95 µM and 5.02 µM | 4.93 µM and 26.4 µM | 2.13 µM and 11.2 µM | 5.37 µM and 24 µM | 2.22 µM and 9.28 µM | 5.13 µM and 22.5 µM |
| CC1(Br)Cc2ccccc2C1=O (configuration not stated) |  | 5.03 µM | 1.75 | 3.86 µM |  | 25.8 µM |  | 9.62 µM and 14.1 µM | 2.14 | 8.43 |  | 20.2 | 2.75 µM | 12.5 µM | 4.18 µM | 21.2 µM |  | 29.8 µM |  | 20.2 µM |
| O=[N+]([O-])c1cccc2ccc(N/N=C/c3ccccc3O)nc12 | > 100 µM | > 100 µM | > 100 | > 100 µM | > 100 µM | > 100 µM | > 100 µM | > 100 µM | > 100 | > 100 | > 100 | > 100 | > 100 µM | > 100 µM | 1.07 µM | > 100 µM | > 100 µM | > 100 µM | > 39.9 µM | > 100 µM |
| CSc1nc(NC2OC(COC(C)=O)C(OC(C)=O)C(OC(C)=O)C2OC(C)=O)c(N=CC=Nc2c(NC3OC(COC(C)=O)C(OC(C)=O)C(OC(C)=O)C3OC(C)=O)nc(SC)n(C)c2=O)c(=O)n1C (configuration not stated) | 37.5 µM | 50 µM and > 100 µM | > 50 | > 100 µM | > 50 µM | > 100 µM | > 50 µM | > 100 µM | > 50 | > 100 | > 50 | > 100 | > 50 µM | > 100 µM | 43.2 µM | 50 µM and > 100 µM | 30.7 µM | 50 µM and > 97.1 µM | > 50 µM | > 100 µM |
| COC(=O)C1=CN(CC2=CC(=O)C(C)=CC2=O)C=C(C(=O)OC)C1c1cccc(OC)c1 | 8.61 µM | 36.6 µM | 2.45 | 5.61 µM | 8.34 µM | 26.9 µM | 6.81 µM | 16.1 µM | 25.7 | > 100 | 12.1 | 30.8 | 14.4 µM | 42.2 µM | 8.26 µM | > 100 µM | 12.2 µM | 25.9 µM | 2.65 µM | > 22.5 µM |
| C=COC(=O)N[C@H]1CCc2cc(OC)c(OC)c(OC)c2-c2ccc(SC)c(=O)cc21 |  | < 0.01 µM |  | 45.9 µM |  | 0.0388 µM |  | > 100 µM |  | 92.9 |  | 44.9 |  | 0.097 µM |  | > 100 µM |  | 86.5 µM |  | 74.9 µM |
| Nc1c(C(=O)c2ccccc2)cnn1-c1ccc(F)cc1 | > 25 µM | > 25 µM | > 25 | > 25 µM | > 25 µM | > 25 µM | > 25 µM | > 25 µM | > 25 | > 25 | > 25 | > 25 | > 25 µM | > 25 µM | > 25 µM | > 25 µM | > 25 µM | > 25 µM | > 25 µM | > 25 µM |
